Data as given in US6759236B1, “Methods to enhance and confine expression of genes” (Research Development Foundation, priority 1998, dated 2004).

Assays:
[1] = tested on: H358 lung carcinoma cell line; assay: Heat inducible, tetracycline feed-forward amplification of p53 expression (p53 immunostaining); assay type: cell-based; details: 0.1 μg/ml added 6 hours after heating (45° C., 20 min); reached in 10 hours; cells cotransfected with ptet-splice p53 wt and HSP-tetp-TET-ON
Experimental: Six hours after heat shock, transfected cells were treated with different doses of doxycycline. At various time points after the addition of doxycycline, the cells were stained with a p53 antibody. For each point, the digital images of fifty immunostained cells were captured using a Nikon microscope. […] The plasmid “HSP-tetp-TET-ON” was constructed by replacing the CMV promoter in ptet-on (Clontech) with 300 bp of the human heat shock protein promoter and the tetp promoter. H358, a non-small cell lung carcinoma cell line with a homozygous deletion of p53, was grown in RPMI+10% fetal calf serum. 10^7 exponentially growing cells were cotransfected with 50 μg of “ptet-splice p53 wt” and 10 μg of “HSP-tetp-TET-ON” by electroporation using a BRL cell-Porator at 1180 μF and 240 V in 0.8 ml RPMI+6 mM glucose. Transfected cells were plated out at 25% confluence for 36 hours and then half of them were heat-shocked at 45° C. for twenty minutes. Six hours after heat shock, cells were treated with different doses of doxycycline. […] The amount of protein expressed in each cell is proportional to the intensity of staining which was expressed as I=1/T, where T is a measure of the transmitted light/unit area.

[2] = cited from earlier work

## C[C@H]1c2cccc(O)c2C(=O)C2=C(O)[C@]3(O)C(=O)C(C(N)=O)=C(O)[C@@H](N(C)C)[C@@H]3[C@@H](O)[C@@H]21 [doxycycline]
[1]
  amplification of p53: more than 12 fold
[2]; in vivo
  in vivo half-life: 18 h

## CN(C)[C@@H]1C(O)=C(C(N)=O)C(=O)[C@@]2(O)C(O)=C3C(=O)c4c(O)cccc4[C@@](C)(O)[C@H]3[C@H](O)[C@@H]12 [oxytetracycline]
[2]; end of 24 hours
  level at the end of 24 hours: < 25 % of input
[2]; humans, single oral dose
  time at which peak plasma concentration is reached: 2 to 4 h
[2]; humans
  fraction removed via the kidney: 10-35%
[2]; in vivo
  fraction never absorbed and excreted in the active form: 10-30%
  in vivo half-life: 9 h
